According to patent US20080096903A1, “SULFAMOYL-CONTAINING DERIVATIVES AND USES THEREOF” (Wyeth, priority 2006, published 2008):
Like-named read-outs stand apart in the source and are kept apart here.

How the values were obtained:
Hsp90α Protein = Hsp90α Protein (Homo sapiens, UniProt P07900); assay: Hsp90 CE Competitive Binding Assay (displacement of fluorescein-labelled geldanamycin)
Description: Hsp90 CE Competitive Binding Assay: […]
b) “Competitor”, fluorescein-labelled geldanamycin • The competitor was synthesized as described by Llauger-Bufi et al, Bioorg.
The electrophoresis running buffer (RB) is comprised of 200 mM CAPSO, pH 9.2 (pH-adjusted with Trizma base). The sample buffer (SB) is comprised of 10 mM Trizma base, pH 8.0 (pH-adjusted with glacial acetic acid), 5 mM MgCl2, 5 mM DTT, and BSA and Triton as noted.
Capillary electrophoresis was performed on Cetek Gemini Systems™ using laser-induced fluorescence detection. Fused-silica capillaries (50 μm I.D.×30 cm, approximately 10 cm length from end to detection window) were internally coated using Cetek's proprietary methods.
Each sample (i.e., fermentation extract, partially-purified fraction, or compound mixture, or pure compound) to be assayed is prediluted 1:20 or 1:40 in SB containing 0.02% Triton. 1 μl of each prediluted sample is then deposited into a 96-well microtiter plate and mixed with 8 μl of Target Cocktail. These samples can be stored at 4° C. until ready for assay.
When ready for analysis, the plates are transferred to the deck of a Gemini System. To each mixture of sample and target, 1 μl of Competitor Cocktail is added and mixed thoroughly. This reaction mixture is allowed to incubate for 8 minutes on the refrigerated deck of the Gemini System (temperature 8° C.). During incubation, the CE capillary is rinsed for 30 seconds with RB containing 2 mg/ml BSA, and then 60 seconds with RB. At the end of incubation, a small plug of the reaction mixture is then injected into the capillary at low pressure (0.5 psi) for 7 seconds. The loaded capillary is then dipped into reservoirs containing RB and the sample is electrophoresed at 10 kV for 6 minutes at a temperature of 8° C.
The electrophoretic separation produces a graphical profile known as an “electropherogram,” which contains a peak representing the intact complex between Hsp90 and competitor, and a smaller series (typically, a triplet) of peaks representing unbound competitor. […] Dose-response experiments, which evaluate the degree of competitor displacement as a function of sample concentration, are subsequently run in triplicate to validate hits and to quantitate their potencies, which are expressed as IC50 values.
Negative controls are comprised of 0.5% DMSO, and positive controls are comprised of 0.1 μg/ml 17-AAG.

[1] = system: Hsp90 (luciferase refolding, cancer cell lysate); assay: Luciferase Refolding Assay; assay type: biochemical; conditions: inhibition of luciferase refolding by Hsp90
Description: Luciferase Refolding Assay
• A. Cancer cells are cultured according to ATCC guidelines. Cell lysates are prepared as follows to be used as source of heat shock proteins: Resuspend the washed cell pellet in 3˜10 packed cell volumes of Buffer A (10 mM HEPES pH 7.9, 1.5 mM MgCl2, 10 mM KCl, 0.5 mM DTT, and 0.2 mM PMSF). Spin at 2000 rpm for 5 minutes in GS-6R (Beckman) centrifuge, 4° C. and resuspend cells in Buffer A up to a final of 3 packed cell volumes (i.e., add ˜2 volumes). Incubate on ice for 10 minutes. Transfer the cells to a Wheaton A Dounce homogenizer and lyse with 10-25 strokes. Stain an aliquot with Trypan Blue and check for >90% lysis under microscope. Spin the homogenized mixture at 3000 rpm for 20 minutes in GS-6R (Beckman) centrifuge, 4° C., to pellet nuclei. To the cytoplasmic fraction (cell lysate), add 1 mM ATP, 14.3 mM creatine phosphate, 71 μg/ml phosphokinase, 3 mM DTT, 113 mM KAc, and 0.7 mM MgAc2. Aliquot into eppendorf tubes and freeze at −80° C. • B. Luciferase Stability Buffer (SB): 25 mM Tris-HCl, pH 7.8; 8 mM MgSO4; 0.1 mM EDTA; 10 mg/ml BSA; 10% Glycerol; 0.25% Triton X-100. Make 2×SB and store at −20° C. • C. Cell Lysate (CL) Buffer: Buffer A containing 1 mM ATP; 14.3 mM creatine phosphate; 71 ug/ml phosphokinase; 3 mM DTT; 113 mM KAc; and 0.7 mM MgAc2. • D. Luciferase: Promega E1701, 14.9 mg/ml=244 μM. Dilute 1:60 in 30 mM Tris-HCl, pH 7.4, 2 mM DTT, and 20% glycerol, resulting in a stock luciferase solution with concentration of 4 μM (250 ng/μl). • E. Luciferase substrate: Promega E1500. Procedure: • 1) Mix luciferase solution 1:1 with 2× SB buffer. Incubate at 42° C. for 8 min to denature. […] Data analysis: Luciferase refolding activity of a cell lysate sample with or without HSP90 inhibitor is represented as the net of luminescence reading from a cell lysate sample subtracting results from negative control (no cell lysate or heat shock proteins). Inhibition effect of a compound is calculated as the percentage of refolding activity relative to samples without any inhibitors in the cell lysate.
The ability of selected compounds of the invention to inhibit luciferase refolding by Hsp90 based on this assay is summarized in Table 14.

[2] = system: HER2/Neu protein in SK-OV-3 cells; assay: Hsp90 Client Protein Degradation Assay; assay type: cell-based; conditions: for IC50: Homo sapiens, 50% degradation of HER2/Neu protein, SK-OV-3 cells, overnight
Description: Hsp90 Client Protein Degradation Assay
SK-OV-3 cells were obtained from ATCC (Rockville, Md.) and maintained in McCoy's 5A Media with 10% Fetal Bovine Serum (ATCC) at 37° C. with 5% CO2 in humidified incubators. Cells were plated at 2 ml per well at 100,000 cells/ml in six well dishes. Cells were incubated overnight at 37° C. and given test agent compound the following day in a titrated series. Cell incubation in the presence of compound proceeded overnight at 37° with 5% CO2 in media in the presence of serum. The following day media was aspirated and cells washed on plate with 2 mls of cold D-PBS. 100 ul of 1× Laemli's buffer was added to each well and total protein obtained by scraping the cell pellet and removing to 1.5 ml Eppendorf tube on ice. Cells were further lysed and DNA was fragmented by sonication and cells debris pelleted at 14 K for 3 min at 4° C. 20 ul was loaded per well and fractionated on PAGE gels. Western analyses were performed using abs specifically for the Hsp90 client proteins HER-2 (Santa Cruz Biotech, Santa Cruz, Calif.) and c-raf-1 (Cell Signaling Technology, Danvers, Mass.). Loading per well was controlled by testing for g-actin on Western Blots (Cell Signaling Technology) simultaneous to testing for HER-2 or c-raf-1. Detection was via a secondary antibody conjugated to Horse radish peroxidase (HRP) and enhanced chemiluminescent detection from Supersignal West Pico Detection Kits from Pierce (Rockford, Ill.). Autoradiography was via Kodak X-OMAT film and developing via a Kodak M35 film processor.

Human cancer cell lines = assay: Cancer-Derived Cell Line Growth Inhibition Assays; assay type: cell-based; conditions: 72 h, 3 days, Cell Titer Blue
Description: Cancer-Derived Cell Line Growth Inhibition Assays
Human cancer cell lines were obtained from ATCC (Rockville, Md.) and maintained according to their media specifications at 37° C. in humidified incubators with or without 5% CO2. Cells were plated at 0.1 ml/well of 50,000 cells per ml in 96 well plates. Monolayer grown cells were incubated overnight prior to the addition of compound while cells grown in suspension are given compound on the same day as plating. The test agent is titrated in duplicate for each compound and concentration tested. Cells are incubated in the presence of compound at 37° C. in humidified incubators for 3 days prior to addition of 20 ul of Cell Titer Blue (Promega, Madison, Wis.) which quantifies total cellular metabolic activity by conversion of resazurin to resorufin. Cell titer blue measures metabolic activity by quantifying the amount of biological activity present in a well using reduction of the dye resazurin as an end-point metric. Cells then are allowed to incubate at 37° C. for 2 hours and then analyzed using a Bio-TEK (Winooski, Vt.) Synergy HT 96/384 well plate reader set for 530 nm/590 nm, Ex/Em. Data analysis and depiction is conducted using EXCEL.

[3] = initial structure activity relationship table, read-out: HSP90 CE IC50
[4] = Table 14, inhibition of binding of labeled geldanamycin to Hsp90, read-out: CE IC50
[5] = versus corresponding alcohol (R═H)

IC50 (Hsp90α Protein; [3]) [µM]	IC50 [1] [µM]	IC50 [2] [µM]	IC50 (Hsp90α Protein; [4]) [µM]	IC50 (Human cancer cell lines) [µM]	more activity than the corresponding alcohol (R═H), CE Hsp90 assay (Hsp90α Protein; [5]) [fold]	Compound	more activity than the corresponding alcohol (R═H), client protein assay [2, 5] [fold]	IC50 (Hsp90α Protein) [µM]
> 144	–	–	–	–	–	Nc1ncnc2c1ncn2C1OC(COP(=O)(O)O)C(O)C1O (centres unmarked) [AMP, reference compound]	–	–
–	< 1	< 3	< 0.04	< 5	–	Nc1nc(F)nc2c1nc(Cc1cc3c(cc1I)OCO3)n2CCOS(N)(=O)=O [Example 1, Sulfamic Acid 2-[6-amino-2-fluoro-8-(6-iodo-benzo[1,3]dioxol-5-ylmethyl)-purin-9-yl]-ethyl ester]	–	–
–	< 1	< 3	< 0.04	< 5	–	Nc1nc(F)nc2c1nc(Cc1cc3c(cc1I)OCO3)n2CCCOS(N)(=O)=O [Example 2, Sulfamic Acid 3-[6-Amino-2-fluoro-8-(6-iodo-benzo[1,3]dioxol-5-ylmethyl)-purin-9-yl]-propyl ester]	–	–
–	< 1	< 3	< 0.04	< 5	–	Nc1nc(F)nc2c1nc(Cc1cc3c(cc1I)OCO3)n2CCCCCOS(N)(=O)=O [Example 4, Sulfamic Acid 5-[6-amino-2-fluoro-8-(6-iodo-benzo[1,3]dioxol-5-ylmethyl)-purin-9-yl]-pentyl ester]	–	–
–	< 1	< 3	< 0.04	< 5	35	Nc1nc(F)nc2c1nc(Cc1cc3c(cc1I)OCO3)n2CCCCCCOS(N)(=O)=O [Example 5, Sulfamic Acid 6-[6-amino-2-fluoro-8-(6-iodo-benzo[1,3]dioxol-5-ylmethyl)-purin-9-yl]-hexyl ester]	16	–
–	< 1	< 3	< 0.04	< 5	–	Nc1nc(F)nc2c1nc(Cc1cc3c(cc1I)OCO3)n2CCCCCCCOS(N)(=O)=O [Example 6, Sulfamic Acid 7-[6-amino-2-fluoro-8-(6-iodo-benzo[1,3]dioxol-5-ylmethyl)-purin-9-yl]-heptyl ester]	–	–
–	–	< 50	< 2	< 100	–	Nc1nc(F)nc2c1nc(Cc1cc3c(cc1I)OCO3)n2CCCCCCCCOS(N)(=O)=O [Example 7, Sulfamic Acid 8-[6-amino-2-fluoro-8-(6-iodo-benzo[1,3]dioxol-5-ylmethyl)-purin-9-yl]-octyl ester]	–	–
–	< 1	< 3	< 0.04	< 5	–	Nc1nc(F)nc2c1nc(Cc1cc3c(cc1I)OCO3)n2CCOCCOS(N)(=O)=O [Example 8, Sulfamic Acid 2-{2-[6-amino-2-fluoro-8-(6-iodo-benzo[1,3]dioxol-5-ylmethyl)-purin-9-yl]-ethoxy}-ethyl ester]	–	–
–	< 1	< 3	< 0.04	< 5	–	Nc1nc(F)nc2c1nc(Cc1cc3c(cc1I)OCO3)n2CCOCCCOS(N)(=O)=O [Example 9, Sulfamic Acid 3-{2-[6-amino-2-fluoro-8-(6-iodo-benzo[1,3]dioxol-5-ylmethyl)-purin-9-yl]-ethoxy}-propyl ester]	–	–
–	< 1	< 3	< 0.04	< 5	–	Nc1nc(F)nc2c1nc(Cc1cc3c(cc1I)OCO3)n2CCOCCCCOS(N)(=O)=O [Example 10, Sulfamic Acid 4-{2-[6-amino-2-fluoro-8-(6-iodo-benzo[1,3]dioxol-5-ylmethyl)-purin-9-yl]-ethoxy}-butyl ester]	–	–
0.7	–	–	–	–	–	Nc1nc(F)nc2c1ncn2C1OC(COS(N)(=O)=O)C(O)C1O (centres unmarked) [FSA, reference compound]	–	–
–	–	–	–	–	–	Nc1nc(F)nc2c1ncn2C1OC(CO)C(O)C1O (centres unmarked) [Fluoroadenosine (FA), Fluoroadenosine, reference compound]	–	22
–	< 5	< 50	< 2	< 100	–	Nc1nc(F)nc2[nH]c(Cc3cc4c(cc3I)OCO4)nc12 [Intermediate 5, 2-Fluoro-8-(6-iodo-benzo[1,3]dioxol-5-ylmethyl)-9H-purin-6-ylamine]	–	–
